Assay results published in ChEMBL document CHEMBL1201862, “PubChem BioAssay data set” (2004).
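Following 48 hours of exposure in 96-well plates, responses at five concentrations were used to interpolate endpoints linearly. GI50 = concentration required for 50% inhibition of growth.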 Calls of active or inactive are those of the source. No stated cut-off is given here; in the data, active = GI50 up to about 1.1 µM and inactive = higher. Where a SMILES comes first, the peptide text is derived from it. The star is where a group is joined. Boc = CC(C)(C)OC(=O)*

Key:
Experiment in all cases: NCI-60 cell line screen, 48 h
BT-549 = test system: BT-549
Hs-578T = test system: Hs-578T
IGROV-1 = test system: IGROV-1
LOX IMVI = test system: LOX IMVI
M14 = test system: M14
NCI-H460 = test system: NCI-H460
RPMI-8226 = test system: RPMI-8226
SF-268 = test system: SF-268
SF-539 = test system: SF-539
SK-MEL-28 = test system: SK-MEL-28
SK-MEL-2 = test system: SK-MEL-2
SK-MEL-5 = test system: SK-MEL-5
T47D = test system: T47D
TK-10 = test system: TK-10
U-251 = test system: U-251
UACC-257 = test system: UACC-257
UO-31 = test system: UO-31
EKVX = test system: EKVX
Malme-3M = test system: Malme-3M
RXF 393 = test system: RXF 393

| Compound | GI50 (BT-549) | GI50 (Hs-578T) | GI50 (IGROV-1) | GI50 (LOX IMVI) | GI50 (M14) | GI50 (NCI-H460) | GI50 (RPMI-8226) | GI50 (SF-268) | GI50 (SF-539) | GI50 (SK-MEL-28) | GI50 (SK-MEL-2) | GI50 (SK-MEL-5) | GI50 (T47D) | GI50 (TK-10) | GI50 (U-251) | GI50 (UACC-257) | GI50 (UO-31) | GI50 (EKVX) | GI50 (Malme-3M) | GI50 (RXF 393) |
| --- | --- | --- | --- | --- | --- | --- | --- | --- | --- | --- | --- | --- | --- | --- | --- | --- | --- | --- | --- | --- |
| CCOC(=O)c1nc2cc(F)cc(F)c2[nH]c1=O | > 100 µM (inactive) | > 100 µM (inactive) | > 100 µM (inactive) | > 100 µM (inactive) | > 100 µM (inactive) | > 100 µM (inactive) | > 100 µM (inactive) | > 100 µM (inactive) | > 100 µM (inactive) | > 100 µM (inactive) | > 100 µM (inactive) | > 100 µM (inactive) | > 100 µM (inactive) | > 100 µM (inactive) | > 100 µM (inactive) | > 100 µM (inactive) | 72.8 µM (inactive) |  |  |  |
| CCC1OC2C(CC=C(C)C)=C3OC(C)(O)C(C)(CC)C(O)C3=C3OC(=O)C=C1C32 (stereo not drawn) | 23 µM (inactive) |  |  | 12.4 µM (inactive) | 30.8 µM (inactive) | 21.4 µM (inactive) | 31.6 µM (inactive) | 27 µM (inactive) | 15.8 µM (inactive) | 50.8 µM (inactive) | 26.1 µM (inactive) | 28.4 µM (inactive) | 29 µM (inactive) | 70.6 µM (inactive) | 58.9 µM (inactive) | 33.9 µM (inactive) | 25.4 µM (inactive) | 35.6 µM (inactive) |  |  |
| COC1CC(OC2C(C)OC(OC3C(C)OC(OC4C(C)OC(O[C@H]5CC[C@@]6(C)C(=CC[C@]7(O)[C@@H]6C[C@@H](OC(=O)/C=C(\C)C(C)C)[C@@]6(C)[C@]7(O)CC[C@@]6(O)C(C)=O)C5)CC4OC)CC3OC)CC2OC)OC(C)C1O (stereo partly drawn) | > 12.5 µM (inactive) | > 12.5 µM (inactive) | > 12.5 µM (inactive) | > 12.5 µM (inactive) | > 12.5 µM (inactive) |  | 4.02 µM (inactive) | > 12.5 µM (inactive) | > 12.5 µM (inactive) |  | > 12.5 µM (inactive) | 11.2 µM (inactive) | > 12.5 µM (inactive) | > 12.5 µM (inactive) | > 12.5 µM (inactive) | > 12.5 µM (inactive) | 4.85 µM (inactive) | > 12.5 µM (inactive) | > 12.5 µM (inactive) |  |
| COc1c(C)c(C/C=C(\C)CCCCO[Si](C(C)C)(C(C)C)C(C)C)c(OC)c2ccccc12 | > 100 µM (inactive) | > 100 µM (inactive) | > 100 µM (inactive) | > 100 µM (inactive) | > 100 µM (inactive) | > 100 µM (inactive) |  | > 100 µM (inactive) | > 100 µM (inactive) |  | > 100 µM (inactive) | > 100 µM (inactive) |  | > 100 µM (inactive) | > 100 µM (inactive) | > 100 µM (inactive) | > 100 µM (inactive) | > 100 µM (inactive) |  | > 100 µM (inactive) |
| CSC1(CC(=O)N(C)C)C(=O)Nc2ccccc21 (stereo not drawn) | > 100 µM (inactive) | > 100 µM (inactive) | > 100 µM (inactive) | > 100 µM (inactive) | > 100 µM (inactive) | > 100 µM (inactive) | > 100 µM (inactive) | > 100 µM (inactive) | > 100 µM (inactive) | > 100 µM (inactive) | > 100 µM (inactive) | > 100 µM (inactive) | > 100 µM (inactive) | > 100 µM (inactive) | > 100 µM (inactive) | > 100 µM (inactive) | > 100 µM (inactive) | > 100 µM (inactive) | > 100 µM (inactive) |  |
| CCCC1NC(C#N)(C#N)C(CCC)NC1(C#N)C#N (stereo not drawn) | 1.12 µM (inactive) | 3.07 µM (inactive) | 1.42 µM (inactive) | 0.105 µM (active) | 0.126 µM (active) | 14 µM (inactive) | < 0.01 µM (active) | 1.31 µM (inactive) | 0.197 µM (active) | 44.9 µM (inactive) | 52.1 µM (inactive) | 1.44 µM (inactive) | 0.946 µM (active) | 1.01 µM (active) | 6.46 µM (inactive) | > 100 µM (inactive) | 0.0787 µM (active) | 42.8 µM (inactive) | 0.0297 µM (active) |  |
| C/C(=N\Nc1nc2ccccc2s1)c1cccnn1 | 5.32 µM (inactive) | 12.1 µM (inactive) | 0.581 µM (active) |  | 3.05 µM (inactive) | 2.65 µM (inactive) | 1.4 µM (inactive) | 1.56 µM (inactive) | 3.55 µM (inactive) | 4.56 µM (inactive) | 3.05 µM (inactive) | 1.31 µM (inactive) |  |  | 3.68 µM (inactive) | 2.48 µM (inactive) | 1.24 µM (inactive) | 0.753 µM (active) |  | 17.1 µM (inactive) |
| COC(=O)C(C)NC(=O)C(CCSC)NC(=O)C(Cc1ccccc1)NC(=O)OC(C)(C)C (stereo not drawn) (Boc-Phe-Met-Ala-OMe; configuration not given here) | > 100 µM (inactive) | > 100 µM (inactive) | > 100 µM (inactive) | > 100 µM (inactive) | > 100 µM (inactive) | > 100 µM (inactive) | > 100 µM (inactive) | > 100 µM (inactive) | > 100 µM (inactive) | > 100 µM (inactive) | > 100 µM (inactive) | > 100 µM (inactive) | > 100 µM (inactive) | > 100 µM (inactive) | > 100 µM (inactive) | > 100 µM (inactive) | > 100 µM (inactive) |  | > 100 µM (inactive) |  |
